Data taken from patent publication US8541588B2, “Sulfonamide derivatives” (Pfizer Limited, priority 2009, dated 2013).
pIC50: −log10 of the molar value.

Molecular target: T1, Nav1.7 (or SCN9A) channel; HEK cells stably transfected with hSCN9A (Homo sapiens, UniProt Q15858)
T1 construct: expressed in transfected cells
Experiment: Nav1.7 block, PatchXpress 7000 automated whole-cell voltage clamp, estimated IC50 (EIC50)
Format: cell-based
Conditions: PatchXpress platform, estimated IC50

[1] = hSCN9A HEK cells held at V1/2 of inactivation
[2] = hSCN9A HEK cells, Examples 283-814

T1 sequence (Q15858 whole entry): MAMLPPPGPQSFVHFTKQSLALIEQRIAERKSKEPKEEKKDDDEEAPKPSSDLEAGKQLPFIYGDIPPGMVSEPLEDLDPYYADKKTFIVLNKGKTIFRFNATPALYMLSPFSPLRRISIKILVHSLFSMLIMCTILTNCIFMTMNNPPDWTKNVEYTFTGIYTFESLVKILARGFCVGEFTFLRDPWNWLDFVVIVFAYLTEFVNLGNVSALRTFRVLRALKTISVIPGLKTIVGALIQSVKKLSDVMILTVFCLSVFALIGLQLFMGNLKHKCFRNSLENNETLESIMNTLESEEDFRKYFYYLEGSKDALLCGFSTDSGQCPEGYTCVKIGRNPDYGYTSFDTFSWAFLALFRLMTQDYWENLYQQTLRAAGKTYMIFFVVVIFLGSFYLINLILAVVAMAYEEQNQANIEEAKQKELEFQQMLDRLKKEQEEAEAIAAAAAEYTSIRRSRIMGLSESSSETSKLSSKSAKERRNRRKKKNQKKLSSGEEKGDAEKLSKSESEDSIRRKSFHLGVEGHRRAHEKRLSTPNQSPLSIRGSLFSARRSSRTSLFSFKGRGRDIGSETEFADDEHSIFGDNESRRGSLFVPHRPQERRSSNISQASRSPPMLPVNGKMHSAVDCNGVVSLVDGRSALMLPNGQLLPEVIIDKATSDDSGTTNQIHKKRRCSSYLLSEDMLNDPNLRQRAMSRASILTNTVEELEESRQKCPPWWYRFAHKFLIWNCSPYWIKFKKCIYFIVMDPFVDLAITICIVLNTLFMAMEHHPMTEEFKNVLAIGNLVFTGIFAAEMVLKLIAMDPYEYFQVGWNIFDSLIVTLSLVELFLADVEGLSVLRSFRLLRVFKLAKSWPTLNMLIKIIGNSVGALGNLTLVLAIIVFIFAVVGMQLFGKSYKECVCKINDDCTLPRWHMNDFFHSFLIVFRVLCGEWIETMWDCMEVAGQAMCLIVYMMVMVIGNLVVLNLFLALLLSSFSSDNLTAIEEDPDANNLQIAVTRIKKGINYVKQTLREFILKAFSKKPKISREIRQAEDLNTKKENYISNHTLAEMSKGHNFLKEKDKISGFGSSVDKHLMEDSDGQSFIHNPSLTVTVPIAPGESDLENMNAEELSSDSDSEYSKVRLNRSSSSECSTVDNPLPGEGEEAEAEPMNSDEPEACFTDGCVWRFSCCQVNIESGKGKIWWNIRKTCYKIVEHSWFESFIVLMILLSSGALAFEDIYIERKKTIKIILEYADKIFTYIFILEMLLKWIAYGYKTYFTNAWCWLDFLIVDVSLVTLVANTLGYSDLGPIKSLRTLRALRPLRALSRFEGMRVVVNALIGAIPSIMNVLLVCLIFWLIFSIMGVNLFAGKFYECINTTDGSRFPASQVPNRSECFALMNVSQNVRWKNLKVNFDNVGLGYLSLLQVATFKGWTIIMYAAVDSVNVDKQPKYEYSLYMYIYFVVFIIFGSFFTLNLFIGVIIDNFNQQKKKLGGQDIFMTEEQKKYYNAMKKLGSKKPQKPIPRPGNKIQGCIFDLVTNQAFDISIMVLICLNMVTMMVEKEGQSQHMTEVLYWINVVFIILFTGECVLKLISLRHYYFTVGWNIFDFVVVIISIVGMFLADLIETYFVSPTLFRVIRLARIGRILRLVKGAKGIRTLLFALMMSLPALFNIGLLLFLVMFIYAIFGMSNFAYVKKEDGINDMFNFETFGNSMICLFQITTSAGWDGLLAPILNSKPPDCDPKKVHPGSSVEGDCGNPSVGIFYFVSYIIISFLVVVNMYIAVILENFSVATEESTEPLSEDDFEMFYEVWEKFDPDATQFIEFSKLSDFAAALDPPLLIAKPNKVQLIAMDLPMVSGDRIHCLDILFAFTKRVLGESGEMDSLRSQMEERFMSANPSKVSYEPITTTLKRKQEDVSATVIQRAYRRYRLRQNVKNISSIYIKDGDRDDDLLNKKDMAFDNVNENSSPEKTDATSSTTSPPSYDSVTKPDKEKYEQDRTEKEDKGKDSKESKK

Compound	pIC50 [1]	pIC50 [2]	IC50 [1]
3-fluoro-4-(4-methyl-2-(1-methyl-1H-pyrazol-3-yl)phenoxy)-N-(thiazol-2-yl)benzenesulfonamide [Example 215]	5.19	–	–
4-(4-chloro-2-piperidin-4-ylphenoxy)-2,5-difluoro-N-1,2,4-thiadiazol-5-ylbenzenesulfonamide [Example 636]	–	8.08	–
4-[2-(2-aminopyridin-4-yl)-4-(trifluoromethoxy)phenoxy]-2,5-difluoro-N-1,2,4-thiadiazol-5-ylbenzenesulfonamide [Example 552]	–	8.62	–
4-[2-fluoro-4-(3-methoxy-1-methyl-1H-pyrazol-5-yl)phenoxy]-N-1,3-thiazol-2-ylbenzenesulfonamide [Example 435]	–	5.57	–
Cn1nccc1-c1cc(F)ccc1Oc1ccc(S(=O)(=O)Nc2ncns2)cc1C#N [Example 1, 3-cyano-4-(4-fluoro-2-(1-methyl-1H-pyrazol-5-yl)phenoxy)-N-(1,2,4-thiadiazol-5-yl)benzenesulfonamide]	7.05	–	–
Cc1nc(-c2ccccc2Oc2ccc(S(=O)(=O)Nc3nccs3)c(F)c2)cs1 [Example 2]	6.09	–	–
Cn1nccc1-c1ccccc1Oc1ccc(S(=O)(=O)Nc2nccs2)cc1F [Example 3, 3-fluoro-4-(2-(1-methyl-1H-pyrazol-5-yl)phenoxy)-N-(thiazol-2-yl)benzenesulfonamide]	7.00	–	–
Cc1cc(OC(C)C)ccc1-c1ccccc1Oc1ccc(S(=O)(=O)Nc2ncns2)cc1C#N [Example 4, 3-cyano-4-[(4′-isopropoxy-2′-methylbiphenyl-2-yl)oxy]-N-1,2,4-thiadiazol-5-ylbenzenesulfonamide]	5.77	–	–
CC(C)Oc1cccc(-c2cc(F)ccc2Oc2ccc(S(=O)(=O)Nc3ncns3)cc2C#N)c1 [Example 5, 3-cyano-4-[(5-fluoro-3′-isopropoxybiphenyl-2-yl)oxy]-N-1,2,4-thiadiazol-5-ylbenzenesulfonamide]	7.15	–	–
N#Cc1cc(S(=O)(=O)Nc2ncns2)ccc1Oc1ccc(F)cc1C1CC1 [Example 6, 3-cyano-4-(2-cyclopropyl-4-fluorophenoxy)-N-1,2,4-thiadiazol-5-ylbenzenesulfonamide]	–	–	>1000 nM
CCc1ccc(-c2ncccc2Oc2ccc(S(=O)(=O)Nc3ncns3)cc2C#N)cc1 [Example 7, 3-cyano-4-{[2-(4-ethylphenyl)pyridin-3-yl]oxy}-N-1,2,4-thiadiazol-5-ylbenzenesulfonamide]	4.44	–	–
CN(C)c1ncc(Oc2ccc(S(=O)(=O)Nc3ncns3)cc2C#N)c(-c2ccc(F)cc2)n1 [Example 8, 3-cyano-4-{[2-(dimethylamino)-4-(4-fluorophenyl)pyrimidin-5-yl]oxy}-N-1,2,4-thiadiazol-5-ylbenzenesulfonamide]	6.35	–	–
Cc1ccc(-c2nc(N(C)C)ncc2Oc2ccc(S(=O)(=O)Nc3ncns3)cc2C#N)cc1 [Example 9, 3-cyano-4-{[2-(dimethylamino)-4-(4-methylphenyl)pyrimidin-5-yl]oxy}-N-1,2,4-thiadiazol-5-ylbenzenesulfonamide]	5.46	–	–
COc1ccc(-c2ccccc2Oc2ccc(S(=O)(=O)Nc3ncns3)cc2C#N)c(C)c1 [Example 10, 3-cyano-4-[(4′-methoxy-2′-methylbiphenyl-2-yl)oxy]-N-1,2,4-thiadiazol-5-ylbenzenesulfonamide]	6.20	–	–
N#Cc1ccc(-c2ccccc2Oc2ccc(S(=O)(=O)Nc3ncns3)cc2C#N)cc1 [Example 11, 3-cyano-4-[(4′-cyanobiphenyl-2-yl)oxy]-N-1,2,4-thiadiazol-5-ylbenzenesulfonamide]	6.37	–	–
Cc1ccc(Oc2ccc(S(=O)(=O)Nc3ncns3)cc2C#N)c(-c2ccccc2)n1 [Example 12, 3-cyano-4-[(6-methyl-2-phenylpyridin-3-yl)oxy]-N-1,2,4-thiadiazol-5-ylbenzenesulfonamide]	6.14	–	–
COc1cc(-c2ccccc2Oc2ccc(S(=O)(=O)Nc3ncns3)cc2C#N)ccc1C#N [Example 13, 3-cyano-4-[(4′-cyano-3′-methoxybiphenyl-2-yl)oxy]-N-1,2,4-thiadiazol-5-ylbenzenesulfonamide]	6.77	–	–
